Laboratory results published in patent publication US20210251934A1, “NOVEL COMPOSITIONS FOR THE TREATMENT OF INFLAMMATORY DISEASES” (SystaMedic Inc., priority 2018, published 2021).

System: formalin induced pain responses
Experiment: Formalin Test (formalin induced pain responses, flinches and licks)
Type: in vivo, rat
Details: late phase 20 to 30 min after formalin
Experimental: Evaluation of analgesic and anti-inflammatory effects of compositions of claim 1 (See Hunskaar S and Hole K. (1987) Pain 30(1):103-14.)
In the Formalin Test a 5% solution of formaldehyde is injected subcutaneously to rat paw which produces a biphasic pain response over a test period of 60 minutes: an early phase lasting the first 5 min and a late phase lasting from 20 to 30 min after the injection of formalin. The early phase is due to a direct effect of […] on nociceptors and the late phase seems to be an inflammatory response with inflammatory pain that can be inhibited by anti-inflammatory drugs. For determining effects of compositions on these response phases two measurements were taken with three minutes interval for determining the number of flinches and licks per minute.
The treatments administered consists of (Human equivalent dose)
The above ingredients were suspended in 2.5 ml saline solution to feed by gavage one hour before injection of formalin and pain response was measured for 45 minutes. The data were collected in duplicate and average was taken.

SMILES: C=C(C)[C@@H]1CCC(C)=C[C@H]1c1c(O)cc(CCCCC)cc1O [Cannabidiol (CBD), Cannabidiol]
- percent inhibition in formalin induced pain responses (human equivalent dose 3 mg): 8%
- percent inhibition in formalin induced pain responses (human equivalent dose 6.25 mg): 40%
- percent inhibition in formalin induced pain responses (human equivalent dose 12.5 mg): 40%
- percent inhibition in formalin induced pain responses (human equivalent dose 25 mg): 90%
- percent inhibition in formalin induced pain responses (human equivalent dose 50 mg): 90%

SMILES: CC(=O)Nc1ccc(O)cc1 [Paracetamol]
- percent inhibition in formalin induced pain responses (human equivalent dose 500 mg): 50%
- percent inhibition in formalin induced pain responses (human equivalent dose 1000 mg): 70%

SMILES: CC(=O)Oc1ccccc1C(=O)O [Aspirin]
- percent inhibition in formalin induced pain responses (human equivalent dose 100 mg): 30%

SMILES: O[C@H]1[C@H](O)[C@@H](O)[C@H](O)[C@@H](O)[C@H]1O [Inositol]
- percent inhibition in formalin induced pain responses (human equivalent dose 31.5 mg): 12%
- percent inhibition in formalin induced pain responses (human equivalent dose 60.2 mg): 30%
- percent inhibition in formalin induced pain responses (human equivalent dose 125 mg): 34%
- percent inhibition in formalin induced pain responses (human equivalent dose 250 mg): 40%
- percent inhibition in formalin induced pain responses (human equivalent dose 500 mg): 85%
